These results are taken from patent US20040005648A1, “PYK2 related products and methods” (Sugen, Inc., priority 1994, published 2004).

For this test, the system named is PYK-2. The experiment in a line: Tyrosine phosphorylation of PYK-2 in NIH3T3 cell lines that overexpress PYK-2. It counts as cell-based, mouse. The conditions noted are these: NIH3T3 cells overexpressing PYK-2 / PYK-2-HA; TPA 6 μM, 15 min at 37° C. Here is the method: Stable cell lines of NIH3T3 that overexpress PYK2 were established by contransfection of PYK2 subcloned into pLSV together with pSV2neo utilizing lipofectamine reagent (GIBCO BRL). Following transfection the cells were grown in Dulbecco's modified Eagle's medium containing 10% fetal bovine serum and 1 mg/ml G418. Transient transfections into 293 cells were performed by using the calcium phosphate technique (*).
The PYK-2 cDNA cloned in PLSV was cotransfected with pSV2neo into PC12 cells and NIH3T3 in order to establish stable cell lines. G418 resistant colonies were screened by immunoprecipitating and immunoblotting.
NIH3T3 cell lines were established that overexpress the PYK-2 and the PYK-2-HA protein. […] The level of phosphorylation is not so high.

Regarding `CCCCCCCCCCCCCC(=O)O[C@@H]1[C@@H](C)[C@@]2(O)[C@@H](C=C(CO)C[C@]3(O)C(=O)C(C)=C[C@@H]23)[C@@H]2C(C)(C)[C@]12OC(C)=O` [PMA, phorbol 12-myristate 13-acetate], the “tyrosine phosphorylation of PYK-2 in response to the agent” value is reported as “stronger effect”.
